Source: paper PMC4176481, “Influence of D-glutamine and D-glutamic acid sequences in optical peptide probes targeted against the cholecystokinin-2/gastrin-receptor on binding affinity, specificity and pharmacokinetic properties” (EJNMMI Research, 2013)
Where “and” joins values, the source holds several entries; their conditions need not be identical. Equal values may be shown once. Entries after “also recorded” stand apart in the source; their conditions may differ. Non-standard residues stand in square brackets, D forms with d. Residues, ends and D or L forms follow the SMILES beside them. *: point of attachment. X1 = CC(C)(C)c1cc(C=CC=CC=C2N(CCCS(=O)(=O)O)c3ccc(S(=O)(=O)O)cc3C2(C)CCCC(=O)*)c2cc3c(cc2[o+]1)N(CCCS(=O)(=O)O)C(C)(C)C=C3CS(=O)(=O)[O-]

What was measured:
[1] = test system: A431/WT cells; assay: Target binding in vitro, fluorescence microscopy, CCK2R-non-expressing cells; assay type: cell-based, human; conditions: 0.5 μM, 30 min
Description: (§1) Binding of the optical probes QE and bivQ to CCK2R-expressing (A431/CCK2R) and CCK2R-non-expressing (A431/WT) cells was investigated after incubation with 0.5 μM of each probe in culture medium for 30 min at 4°C to observe active surface receptor binding and at 37°C to check for internalization behaviour, which is mandatory for in vivo signal amplification. Incubation with 0.5 μM of the fluorochrome DY-754 should determine the role of the interaction of the peptide with the CCK2R for probe uptake. Probe incubation was followed by cell membrane staining with wheat germ agglutinin-Alexa Fluor®-555 (WGA-555, Invitrogen, Carlsbad, CA, USA), fixation in 4% (v/v) paraformaldehyde on ice and mounting in PermaFluor® Mounting medium (Thermo Fisher, Waltham, MA, USA), containing 0.2 μg/mL Hoechst 33258 (Applichem, Darmstadt, Germany) to stain cell nuclei. Fluorescence microscopy was carried out with the digital microscope EVOSfl (AMG, Bothell, WA, USA) equipped with three filter cubes for visualization of Hoechst (excitation 335 to 379 nm, emission 417 to 477 nm), WGA-555 (excitation 511 to 551 nm, emission 573 to 613 nm) and DY-754 (excitation 690 to 730 nm, emission 752 to 798 nm).

[2] = test system: A431/CCK2R and A431/WT tumours; assay: Ex vivo intratumoural probe distribution in cryosections (Odyssey scanner); set-up: species or system athymic nude mice; conditions: acetone-fixed 30-μm cryosections of explanted xenografts, three specimens/group
Text: To determine intratumoural distribution of the peptide probes ex vivo, acetone-fixed 30-μm cryosections of explanted xenografts were scanned mesoscopically in the near-infrared scanner Odyssey® (LI-COR, Bad Homburg, Germany) at 700 nm (autofluorescence) and 800 nm (probe fluorescence).

[3] = Biodistribution, ex vivo NIRF of organs and xenografts 8 h p.i.; assay type: in vivo, athymic nude mice
Description: We investigated the biodistribution of the optical probes and of the fluorochrome DY-754 to determine the influence of the dye on tumour and organ accumulation. Therefore, 8 h p.i., ex vivo NIRF fluorescence images of the organs and the two xenografts (A431/CCK2R and A431/WT) per mouse were taken in combination with the placement of ROIs on these organs to assess semiquantitative fluorescence intensities.

[4] = Metabolic (protease) stability in mouse liver homogenates; assay type: in vitro ADME; conditions: mouse liver homogenate, incubation up to 180 min, HPLC with UV/VIS detection at 750 nm, three parallels
Description: Supplementary file 2191-219X-3-75-S3.pptx: Additional file 3: Metabolic (protease) stability of QE and bivQ against the degradation by mouse liver homogenates. The HPLC peak of non-degraded QE at 9.7 min elution time (a-I) decreased after 180 min of probe incubation in liver homogenate, whereas a second peak, representing degradation products, appeared at 7.2 min of elution (a-II). Degradation curves of (b) QE and (c) bivQ. […] Peaks were detected at 750 nm with a UV/VIS detector. Data represent three parallels. Click here for file
Supplementary file 2191-219X-3-75-S4.pptx: Additional file 4: Metabolic stability of the optical CCK2R targeted minigastrin dQ-MG-754 [[20]]. Degradation of dQ-MG-754 for comparison with QE and bivQ. […] Probe signal was detected at 750 nm with a UV/VIS detector. Data represent three parallels. Click here for file

[5] = test system: A431/WT tumours; assay: In vivo NIRF imaging of CCK2R-negative xenografts; set-up: species or system athymic nude mice; conditions: 1 to 8 h p.i.; i.v. 108 nmol/kg QE or 54 nmol/kg bivQ; n = 5
Text: Female athymic nude mice (Hsd:Athymic Nude-Foxn1^nu nu/nu; Harlan Laboratories, Eystrup, Germany) were housed under standard conditions with water and food ad libitum. Mice were maintained under a low-pheophorbide diet (C 1039; Altromin, Lage, Germany) to reduce tissue autofluorescence. All procedures were approved by the regional animal committee (reg. number 02-007/10) and were in accordance with international guidelines on the ethical use of animals. Animals were anesthetized with 2% isoflurane during all procedures. […]
Xenografts were inoculated in athymic nude mice (Hsd:Athymic Nude-Foxn1^nu nu/nu; Harlan Laboratories) 10 to 15 days before imaging by subcutaneous injection of 0.5 million A431/CCK2R (left flank) and A431/WT cells (right flank) dispersed in Matrigel™ (BD Biosciences). For in vivo fluorescence imaging, 108 nmol/kg QE or 54 nmol/kg bivQ probe was injected intravenously (i.v.), according to the results of a dose determination experiment, which was set up to identify the optimal relation between sensitivity and contrast (Additional file 1). […] Another group received 108 nmol/kg of the unconjugated fluorophore DY-754 to determine dye-mediated non-specific tumour uptake, and one group remained untreated to control for probe-unrelated NIR fluorescence in the animals. […]

[6] = test system: A431/CCK2R tumours; assay: In vivo NIRF imaging of CCK2R-expressing xenografts; set-up: species or system athymic nude mice
Text: Female athymic nude mice (Hsd:Athymic Nude-Foxn1^nu nu/nu; Harlan Laboratories, Eystrup, Germany) were housed under standard conditions with water and food ad libitum. Mice were maintained under a low-pheophorbide diet (C 1039; Altromin, Lage, Germany) to reduce tissue autofluorescence. All procedures were approved by the regional animal committee (reg. number 02-007/10) and were in accordance with international guidelines on the ethical use of animals. Animals were anesthetized with 2% isoflurane during all procedures. To implement subcutaneous xenografts, 5 × 10^5 CCK2R transfected (A431/CCK2R) and non-transfected wild-type cells (A431/WT) were dispensed in Matrigel™ (BD Biosciences, Heidelberg, Germany) and injected into the right (A431/CCK2R cells) and left (A431/WT cells) flank of 8- to 12-week-old animals 10 to 15 days before in vivo imaging.
Xenografts were inoculated in athymic nude mice (Hsd:Athymic Nude-Foxn1^nu nu/nu; Harlan Laboratories) 10 to 15 days before imaging by subcutaneous injection of 0.5 million A431/CCK2R […] and A431/WT cells (right flank) dispersed in Matrigel™ (BD Biosciences). For in vivo fluorescence imaging, 108 nmol/kg QE or 54 nmol/kg bivQ probe was injected intravenously (i.v.), according to the results of a dose determination experiment, which was set up to identify the optimal relation between sensitivity and contrast (Additional file 1). […] Another group received 108 nmol/kg of the unconjugated fluorophore DY-754 to determine dye-mediated non-specific tumour uptake, and one group remained untreated to control for probe-unrelated NIR fluorescence in the animals. At defined time points between 0 and 8 h p.i., NIRF fluorescence images (excitation 615 to 665 nm, emission >750 nm) and white light images of the animals were obtained. By means of spectral unmixing, tissue autofluorescence was removed from the images. Subsequently, fluorescence intensities (FI) were analysed over the time in regions of interest (ROIs) that were placed upon the tumours and non-tumour tissue. As a measure of contrast between tumour and non-tumour fluorescence, tumour/background ratios (TBRs) were calculated as a quotient of FItumour/FInon-tumour.

[7] = test system: A431/CCK2R cells; assay: Target binding and internalization in vitro, fluorescence microscopy; assay type: cell-based, human; conditions: 0.5 μM, 30 min
Description: as §1

[8] = target: T1, CCK2R (A431/CCK2R cells) (Homo sapiens, UniProt P32239); set-up: method as in PMID 23591397; conditions: earlier probe with a spacer of six uncharged D-glutamines; read-out: dissociation constant Kd; cited from earlier work
T1 construct: expressed in transfected cells; host or cells: A431 human epidermoid carcinoma cells, stably transfected (gift from Dr. Luigi Aloj)
T1 sequence (P32239 1-447): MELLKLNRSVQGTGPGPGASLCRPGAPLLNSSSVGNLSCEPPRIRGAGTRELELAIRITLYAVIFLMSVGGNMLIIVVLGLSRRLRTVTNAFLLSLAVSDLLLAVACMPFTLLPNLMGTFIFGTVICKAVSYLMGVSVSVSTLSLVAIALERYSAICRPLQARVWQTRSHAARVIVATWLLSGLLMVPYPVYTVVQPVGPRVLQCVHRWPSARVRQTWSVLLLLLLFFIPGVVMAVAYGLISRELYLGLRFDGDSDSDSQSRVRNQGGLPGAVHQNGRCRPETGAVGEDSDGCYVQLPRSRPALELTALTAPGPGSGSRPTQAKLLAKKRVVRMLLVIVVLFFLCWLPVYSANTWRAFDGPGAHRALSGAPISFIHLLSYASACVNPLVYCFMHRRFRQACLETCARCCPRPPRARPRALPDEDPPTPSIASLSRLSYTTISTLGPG

Compound	binding to A431/WT cells (no CCK2R expression) [1]	intratumoural fluorescence at 800 nm in tumour sections [2]	fluorescence accumulation in stomach, small intestine and colon ([3]; n = 5)	uptake in the liver compared to free DY-754 ([3]; n = 5)	uptake into A431/WT tumours (biodistribution) ([3]; n = 5, comparably high for DY-754 (p > 0.05))	metabolic stability against degradation by liver proteases [4]	TBR, A431/WT tumours [5]	TBR, A431/CCK2R xenografts, under competition ([6]; 8 h p.i., co-injection of 10-fold molar excess of non-fluorescent minigastrin, mean ± SD, n = 5)	tumour/background ratio (TBR), A431/CCK2R xenografts ([6]; 8 h p.i., i.v. 108 nmol/kg QE or 54 nmol/kg bivQ, mean ± SD, n = 5)	TBR, CCK2R-expressing xenografts (summary bound) ([6]; high-contrast imaging, discussion summary)	probe localisation in A431/CCK2R cells at 4°C ([7]; 4°C)	binding and internalization in A431/CCK2R cells at 37°C ([7]; 37°C, n = 3)	Kd [8] [nM]
CSCC[C@H](NC(=O)[C@H](Cc1c[nH]c2ccccc12)NC(=O)CNC(=O)[C@H](Cc1ccc(O)cc1)NC(=O)[C@H](C)NC(=O)[C@@H](CCC(=O)O)NC(=O)[C@@H](CCC(N)=O)NC(=O)[C@@H](CCC(=O)O)NC(=O)[C@@H](CCC(N)=O)NC(=O)[C@@H](CCC(=O)O)NC(=O)[C@@H](CCC(N)=O)NC(=O)CCCC1(C)C(=CC=CC=Cc2cc(C(C)(C)C)[o+]c3cc4c(cc23)C(CS(=O)(=O)[O-])=CC(C)(C)N4CCCS(=O)(=O)O)N(CCCS(=O)(=O)O)c2ccc(S(=O)(=O)O)cc21)C(=O)N[C@@H](CC(=O)O)C(=O)N[C@@H](Cc1ccccc1)C(N)=O (stereo partly shown) [QE] (X1-[dQ][dE][dQ][dE][dQ][dE]AYGWMDF-NH2)	no binding	only in the outer A431/CCK2R tumour regions	no fluorescence accumulation	weakly elevated uptake	weak uptake	more stable than bivQ; also recorded: highly stable	~2 and < 2	4.4 ± 0.9	6.2 ± 1.0	> 6	restricted to the cell membrane	binding and internalization	
dQ-MG-754: previously published optical minigastrin probe with a spacer of six uncharged D-glutamines and DY-754 (ref 20) (QQQQQQAYGWMDF; not fully specified; Synthetic minigastrin analogue; Residues 1-6 are D-Gln (the text states a spacer of six D-glutamines))													1.8 ± 0.6
